In patent publication US20100216825A1, “FUNGICIDAL COMPOSITIONS” (SYNGENTA CROP PROTECTION, INC., priority 2006, published 2010):
“And” between values parts separate entries of the source, which are not always exact repeats. Equal values may be shown once. Read-outs that look alike come from different tables or passages of the source.

Tests used:
Assay type in all cases: cell-based
Botrytis cinerea = test: Action against Botrytis cinerea, growth inhibition in nutrient broth (microtiter plate, photometric); settings: 24° C., 48-72 hrs
Pyricularia oryzae = settings: 24° C., 72 hrs
Alternaria solani = test: Action against Alternaria solani (early blight), growth inhibition in nutrient broth (microtiter plate, photometric); settings: 24° C., 48 hrs
Pyrenophora teres = test: Action against Pyrenophora teres (net blotch), growth inhibition in nutrient broth (microtiter plate, photometric); settings: 24° C., 48 hrs
Pythium ultimum = test: Action against Pythium ultimum (damping off), growth inhibition in nutrient broth (microtiter plate, photometric); settings: each active ingredient at 0.67 ppm [mg/L] final medium; 24° C., 48 hrs
[1] = each active ingredient at 0.02 ppm [mg/L] final medium

CC(C)C1C2CCC1c1c(NC(=O)c3cn(C)nc3C(F)F)cccc12 (racemic) [Cpd I, 3-difluoromethyl-1-methyl-1H-pyrazole-4-carboxylic acid (9-isopropyl-1,2,3,4-tetrahydro-1,4-methano-naphthalen-5-yl)-amide]
Observed control in % (% Cobs) observed (Botrytis cinerea; [1]): 17%
Observed control in % (% Cobs) observed (Botrytis cinerea; each active ingredient at 0.07 ppm [mg/L] final medium): 61%
Observed control in % (% Cobs) observed (Botrytis cinerea; each active ingredient at 0.22 ppm [mg/L] final medium): 74%
Observed control in % (% Cobs) observed (Botrytis cinerea; each active ingredient at 0.67 ppm [mg/L] final medium): 79%
Observed control in % (% Cobs) observed (Pyricularia oryzae; each active ingredient at 0.01 ppm [mg/L] final medium): 11%
Observed control in % (% Cobs) observed (Pyricularia oryzae; [1]): 35%
Observed control in % (% Cobs) observed (Alternaria solani; each active ingredient at 0.004 ppm [mg/L] final medium): 1% and 2%
Observed control in % (% Cobs) observed (Alternaria solani; each active ingredient at 0.008 ppm [mg/L] final medium): 5% and 2%
Observed control in % (% Cobs) observed (Alternaria solani; each active ingredient at 0.016 ppm [mg/L] final medium): 9% and 12% and 3%
Observed control in % (% Cobs) observed (Alternaria solani; [1]): 46%
Observed control in % (% Cobs) observed (Pyrenophora teres; each active ingredient at 0.5 ppm [mg/L] final medium): 70%
Observed control in % (% Cobs) observed (Pyrenophora teres; each active ingredient at 1 ppm [mg/L] final medium): 79%
Observed control in % (% Cobs) observed (Pythium ultimum): 0%
